Molecules are shown by their SMILES.

Test [1] has as its target T1, Peroxisome proliferator-activated receptor alpha (Homo sapiens, UniProt Q07869).
T1 sequence (Q07869 whole entry): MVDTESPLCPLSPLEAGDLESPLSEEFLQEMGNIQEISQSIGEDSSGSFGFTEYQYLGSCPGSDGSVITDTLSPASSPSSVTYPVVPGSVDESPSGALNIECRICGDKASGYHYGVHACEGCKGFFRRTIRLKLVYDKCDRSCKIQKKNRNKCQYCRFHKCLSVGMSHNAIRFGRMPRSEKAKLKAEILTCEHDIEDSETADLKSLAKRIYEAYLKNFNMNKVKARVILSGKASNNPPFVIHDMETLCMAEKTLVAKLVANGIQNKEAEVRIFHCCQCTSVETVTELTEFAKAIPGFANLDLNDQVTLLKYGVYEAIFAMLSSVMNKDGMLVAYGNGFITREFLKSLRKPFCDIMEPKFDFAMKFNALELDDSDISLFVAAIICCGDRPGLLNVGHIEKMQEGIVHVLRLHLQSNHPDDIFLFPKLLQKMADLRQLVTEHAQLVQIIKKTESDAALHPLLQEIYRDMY
Nature of the test: (§1) Reporter Gene Assay: Transactivation Assay Expression vectors were prepared by inserting the ligand binding domain cDNA (complementary DNA) of human PPARalpha (amino acid 168-468) and human PPARgamma (amino acid 205-505), 3′ to and in frame with, the yeast GAL4 transcription factor DNA binding domain and the nuclear localization signal from the T-antigen of Polyoma Virus into the mammalian expression vector pSGS (Stratagene). The resulting expression vectors pSGGAL-PPARalpha and pSGGAL-PPARgamma were used in co-transfection experiments together with a modified pGL3 promoter plasmid (Promega) containing five copies of the UAS GAL4 recognition site. 2.5 μg pSGGAL-PPARalpha or pSGGAL-PPARgamma were mixed with 25 μg pGL3p […] and 22.5 μg pBluescript (Stratagene) in 0.95 mL ice cold PBS containing between 9-12 million U-2 OS (human osteosarcoma) cells. The cell/DNA mixture was incubated on ice for 5 minutes and then divided between two 0.4 cm cuvettes and electroporated at 960 μF, 2. (A reporter such as luciferase makes a cellular process visible.)

For test [2], the target named is T2, Peroxisome proliferator-activated receptor gamma (Homo sapiens, UniProt P37231).
T2 sequence (P37231 whole entry): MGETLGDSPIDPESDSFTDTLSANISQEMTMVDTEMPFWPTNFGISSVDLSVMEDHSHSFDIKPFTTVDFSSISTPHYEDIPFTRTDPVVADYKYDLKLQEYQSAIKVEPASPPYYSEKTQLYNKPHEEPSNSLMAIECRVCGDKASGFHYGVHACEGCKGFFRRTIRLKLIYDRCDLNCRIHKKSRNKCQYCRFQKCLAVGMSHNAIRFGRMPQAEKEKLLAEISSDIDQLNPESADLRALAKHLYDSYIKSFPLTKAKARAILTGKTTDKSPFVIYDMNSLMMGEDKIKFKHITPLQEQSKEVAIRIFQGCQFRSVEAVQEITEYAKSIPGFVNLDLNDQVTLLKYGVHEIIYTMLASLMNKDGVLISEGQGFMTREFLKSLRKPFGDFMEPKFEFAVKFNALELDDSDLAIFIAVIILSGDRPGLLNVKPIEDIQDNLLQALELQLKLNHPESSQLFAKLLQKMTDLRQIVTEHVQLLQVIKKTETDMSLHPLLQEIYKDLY
The test is described as §1.

On to `CS(=O)(=O)Oc1ccc(C(=O)OCc2ccc(CC(SCCc3ccc(F)cc3)C(=O)O)cc2)cc1` (stereo unspecified), for which the EC50 in test [1] amounted to 240 nM; in test [2], 1800 nM.
On to `CS(=O)(=O)Oc1ccc(CC(=O)OCc2ccc(CC(SCCc3ccc(F)cc3)C(=O)O)cc2)cc1` (stereo unspecified), for which the EC50 was determined as 240 nM in test [1] and 1700 nM in test [2].
The like results for `O=C(Cc1ccccn1)OCc1ccc(CC(SCCc2ccc(F)cc2)C(=O)O)cc1` (stereo unspecified) were, in that order, 1500 nM and 2100 nM.

A word on the EC50: it is the concentration giving half of the maximal effect.

Values taken from ChEMBL document CHEMBL3886340, “2-substituted-3-phenylpropionic acid derivatives and their use in the treatment of inflammatory bowel disease” (2015).
